Our source for the EC50, Emax and inhibition values is patent US10519169B2, “3-(1H-pyrrolo[2,3-C]pyridin-2-yl)-1 H-pyrazolo[4,3-B]pyridines and therapeutic uses thereof” (Samumed, LLC, priority 2015, dated 2019).

The test system of assay [1] is primary human mesenchymal stem cells (hMSCs). Kind of assay: Chondrogenesis induction in hMSCs (chondrogenic nodules). Type of assay: cell-based. The following applies: 144 h, 6 days; for EC50: concentration required to induce 50% levels of chondrogenesis vs TGF-β3, read-out: Conc (nM) of 50% TGF-β3 activity; for Emax: nodules, relative to TGF-β3 positive control (10 ng/mL), read-out: Max. Activity as % TGF-β3 activity. As for the experimental part:
Representative compounds were screened using primary human mesenchymal stem cells (hMSCs) to determine their ability to induce chondrogenesis (process by which cartilage is developed).
Primary human mesenchymal stem cells (hMSCs) were purchased from Lonza (Walkersville, Md.) and expanded in Mesenchymal Stem Cell Growth Media (Lonza). Cells between passage 3 and 6 were used for the experiments.
Each compound was dissolved in DMSO as a 10 mM stock and used to prepare compound source plates. Serial dilution (1:3, 6-point dose-response curves from 2700 nM to 10 nM) and compound transfer was performed using the ECHO 550 (Labcyte, Sunnyvale, Calif.) into 96-well clear bottom assay plates (Greiner Bio-One) with appropriate DMSO backfill for a final DMSO concentration of 0.03%. hMSCs were plated at 20,000 cells/well in 250 μL/well Incomplete Chondrogenic Induction Medium (Lonza; DMEM, dexamethasone, ascorbate, insulin-transferrin-selenium [ITS supplement], gentamycin-amphotericin [GA-1000], sodium pyruvate, proline and L-glutamine). TGF-03 (10 ng/mL) was used as a positive control for differentiation while negative control wells were treated with 75 nL DMSO for normalization and calculating EC50 values. Cells were incubated at 37° C. and 5% CO2 for 6 days. To image chondrogenic nodules, the cells were fixed using 4% formaldehyde (Electron Microscopy Sciences), and stained with 2 μg/mL Rhodamine B (Sigma-Aldrich) and 20 μM Nile Red (Sigma-Aldrich) [Johnson K., et. al, A Stem Cell-Based Approach to Cartilage Repair, Science, (2012), 336(6082), 717-721]. The nodules imaged (4 images per well at 4× magnification) by excitation at 531 nm and emission at 625 nm and quantified using the CellInsight CX5 (Thermo Scientific). Number of nodules in each well was normalized to the average of 3 DMSO treated wells on the same plate using Excel (Microsoft Inc.). The normalized averages (fold change over DMSO) of 3 replicate wells for each compound concentration were calculated. Due to solubility limitations of some of the compounds, curve fitting was incomplete leading to inaccurate EC50 determinations.
Using TGF-β3 as a positive control, the concentration of representative compounds required to induce 50% levels of chondrogenesis is reported. In addition, the maximum activity of each compound and the respective dose that each compound reached maximum chondrogenesis activity is reported.

The next assay relates to IL-6. Kind of assay: IL-6 inhibition in LPS-stimulated THP-1 cells (HTRF). The class given is cell-based. The conditions noted are these: Homo sapiens; for EC50: LPS 500 ng/mL, 22 hours, IL6 HTRF; for inhibition at 10 µM: given for EC50 >10 μM, LPS, IL6, at 10 M [sic], read-out: percent inhibition at 10 M. The method, then:
Human monocyte cell line (THP-1 cells; Catalog # TIB-202, ATCC, Manassas, Va.) were cultured in Roswell Park Memorial Institute (RPMI) 1640 Medium (Catalog #21870-100, Buffalo, N.Y.) with 1% L-glutamine, 1% HEPES, 1% Sodium Pyruvate, 2% Sodium Bicarbonate supplemented with 100 units/mL penicillin, 50 μg/mL streptomycin, 2-mercaptoethanol (0.05 mM) [basal medium] and 10% fetal bovine serum (Catalog #16140089, Life Technologies, Carlsbad, Calif.) at 37° C. and 5% CO2.
THP-1 cells were cultured in basal media with 1% FBS for 24 hours before the start of the assay. Each compound was dissolved in DMSO as a 10 mM stock and used to prepare compound source plates. Serial dilution (1:3, 10-point dose-response curves starting from 10 μM) and compound transfer was performed using the ECHO 550 (Labcyte, Sunnyvale, Calif.) into 384-well white low volume assay plates (Greiner Bio-One) with appropriate DMSO backfill for a final DMSO concentration of 0.1%. THP-1 cells were plated at 5000 cells/well in the 384-well plates and incubated at 37° C. for 2 h. 500 ng/mL of LPS was added after 2 hours and cells were incubated for another 22 hours at 37° C. Plates were spun in a centrifuge for 1 minute at […] and a mixture of anti-IL6 XL665, and anti-IL6 Cryptate diluted in reconstitution buffer (Cisbio Inc.) was added to each well. Following incubation for 3 hrs at room temperature, Homogeneous Time-Resolved Fluorescence (HTRF) was measured using the Envision (Perkin Elmer) at 665 nm and […]. The ratio of fluorescence at 665 nm to 620 nm was used as a readout for IL6 quantification. All samples were processed in duplicate. Readings were normalized to DMSO treated cells and normalized activities were utilized for EC50 calculations using the dose-response log (inhibitor) vs. response-variable slope (four parameters) nonlinear regression feature available in GraphPad Prism 5.0 (or Dotmatics). For EC50 of >10 μM, the percent inhibition at […] is provided.
For orientation: In TR-FRET formats the signal depends on donor and acceptor labels being close together.

Each structure is given as a SMILES string.

With `Fc1cccc(-c2cncc3[nH]c(-c4n[nH]c5ccc(-c6cccnc6)nc45)cc23)c1` [Compound 4, 3-(4-(3-Fluorophenyl)-1H-pyrrolo[2,3-c]pyridin-2-yl)-5-(pyridin-3-yl)-1H-pyrazolo[4,3-b]pyridine], in assay [1], the EC50 was found to be 30 nM and the Emax turned out to be 92%. Further, the EC50 in the assay with IL-6 worked out at 0.266 µM.

In the case of `CN(C)c1cncc(-c2ccc3[nH]nc(-c4cc5c(-c6cccc(F)c6)cncc5[nH]4)c3n2)c1` [Compound 7, 5-(3-(4-(3-Fluorophenyl)-1H-pyrrolo[2,3-c]pyridin-2-yl)-1H-pyrazolo[4,3-b]pyridin-5-yl)-N,N-dimethylpyridin-3-amine], in assay [1], the EC50 was determined as 100 nM and the Emax worked out at 85%. In the assay on IL-6, this compound showed an EC50 of 0.038 µM.

`Fc1cccc(-c2cncc3[nH]c(-c4n[nH]c5ccc(-c6cncc(CN7CCCCC7)c6)nc45)cc23)c1` [Compound 15, 3-(4-(3-Fluorophenyl)-1H-pyrrolo[2,3-c]pyridin-2-yl)-5-(5-(piperidin-1-ylmethyl)pyridin-3-yl)-1H-pyrazolo[4,3-b]pyridine]: in assay [1], the EC50 is 10 nM and the Emax is 54%. For the same compound, in the assay with IL-6, the EC50 was over 10 µM and the inhibition at 10 µM is 51.3%.

As for `Cc1ccncc1-c1ccc2[nH]nc(-c3cc4c(-c5ccc(F)cc5)cncc4[nH]3)c2n1` [Compound 33, 3-(4-(4-Fluorophenyl)-1H-pyrrolo[2,3-c]pyridin-2-yl)-5-(4-methylpyridin-3-yl)-1H-pyrazolo[4,3-b]pyridine], the Emax in assay [1] was 28%. Moreover, in the assay with IL-6, the EC50 was over 10 µM and the inhibition at 10 µM amounted to 37.8%.

With `O=C(Nc1cncc(-c2ccc3[nH]nc(-c4cc5c(-c6ccc(F)cc6)cncc5[nH]4)c3n2)c1)c1ccccc1` [Compound 39, N-(5-(3-(4-(4-Fluorophenyl)-1H-pyrrolo[2,3-c]pyridin-2-yl)-1H-pyrazolo [4,3-b]pyridin-5-yl)pyridin-3-yl)benzamide], in the assay with IL-6, the EC50 is over 10 µM and the inhibition at 10 µM amounted to 33.1%.

As for `Fc1ccc(-c2cncc3[nH]c(-c4n[nH]c5ccc(-c6cncc(CN7CCC(F)(F)C7)c6)nc45)cc23)cc1` [Compound 54, 5-(5-((3,3-Difluoropyrrolidin-1-yl)methyl)pyridin-3-yl)-3-(4-(4-fluorophenyl)-1H-pyrrolo[2,3-c]pyridin-2-yl)-1H-pyrazolo[4,3-b]pyridine], in assay [1], the EC50 stood at 900 nM and the Emax was determined as 194%. In the assay on IL-6, this compound displayed an EC50 of 0.177 µM.

Take `CN(C)Cc1cncc(-c2ccc3[nH]nc(-c4cc5c(-c6ccccc6F)cncc5[nH]4)c3n2)c1` [Compound 69, 1-(5-(3-(4-(2-Fluorophenyl)-1H-pyrrolo[2,3-c]pyridin-2-yl)-1H-pyrazolo [4,3-b]pyridin-5-yl)pyridin-3-yl)-N,N-dimethylmethanamine]: in assay [1], the EC50 was found to be 30 nM and the Emax was 51%. Further, the EC50 in the assay with IL-6 stood at 1.15 µM.

As to `Cc1ccncc1-c1ccc2[nH]nc(-c3cc4c(-c5cccnc5)cncc4[nH]3)c2n1` [Compound 89, 5-(4-Methylpyridin-3-yl)-3-(4-(pyridin-3-yl)-1H-pyrrolo[2,3-c]pyridin-2-yl)-1H-pyrazolo[4,3-b]pyridine], in assay [1], the EC50 turned out to be 10 nM and the Emax came out at 149%. The compound also had an EC50 with IL-6 of 0.424 µM.

On to `FC1(F)CCN(Cc2cncc(-c3ccc4[nH]nc(-c5cc6c(-c7cccnc7)cncc6[nH]5)c4n3)c2)C1` [Compound 110, 5-(5-((3,3-Difluoropyrrolidin-1-yl)methyl)pyridin-3-yl)-3-(4-(pyridin-3-yl)-1H-pyrrolo[2,3-c]pyridin-2-yl)-1H-pyrazolo[4,3-b]pyridine], for which the Emax in assay [1] was 23%. Besides, the EC50 in the assay with IL-6 was 0.38 µM.

`Nc1cncc(-c2ccc3[nH]nc(-c4cc5c(-c6ccncc6)cncc5[nH]4)c3n2)c1` [Compound 115, 5-(3-(4-(Pyridin-4-yl)-1H-pyrrolo[2,3-c]pyridin-2-yl)-1H-pyrazolo[4,3-b]pyridin-5-yl)pyridin-3-amine]: the EC50 in assay [1] is 30 nM; in the assay with IL-6, 1.03 µM. Besides, the Emax in assay [1] is 53%.

`c1cc(-c2cncc3[nH]c(-c4n[nH]c5ccc(-c6cncc(CN7CCCCC7)c6)nc45)cc23)ccn1` [Compound 127, 5-(5-(Piperidin-1-ylmethyl)pyridin-3-yl)-3-(4-(pyridin-4-yl)-1H-pyrrolo[2,3-c]pyridin-2-yl)-1H-pyrazolo[4,3-b]pyridine]: in assay [1], the EC50 is 10 nM and the Emax turned out to be 97%. In the assay with IL-6, the EC50 is 2.85 µM.

As for `O=C(Nc1cncc(-c2ccc3[nH]nc(-c4cc5ccncc5[nH]4)c3n2)c1)C1CCCC1` [Compound 274, N-(5-(3-(1H-Pyrrolo[2,3-c]pyridin-2-yl)-1H-pyrazolo[4,3-b]pyridin-5-yl)pyridin-3-yl)cyclopentanecarboxamide], in assay [1], the EC50 stood at 30 nM and the Emax was 50%. For the same compound, in the assay with IL-6, the EC50 is 0.235 µM.

For the compound `c1ccc(-c2ccc3[nH]nc(-c4cc5ccncc5[nH]4)c3n2)nc1` [Compound 280, 5-(Pyridin-2-yl)-3-(1H-pyrrolo[2,3-c]pyridin-2-yl)-1H-pyrazolo[4,3-b]pyridine], in the assay with IL-6, the EC50 is over 10 µM and the inhibition at 10 µM was determined as 47.2%.

Consider `O=C(Cc1ccccc1)Nc1cncc(-c2ccc3[nH]nc(-c4cc5c(-c6ccoc6)cncc5[nH]4)c3n2)c1` [Compound 318, N-(5-(3-(4-(Furan-3-yl)-1H-pyrrolo[2,3-c]pyridin-2-yl)-1H-pyrazolo[4,3-b]pyridin-5-yl)pyridin-3-yl)-2-phenylacetamide], for which, in the assay on IL-6, the EC50 was over 10 µM and the inhibition at 10 µM came out at 30.9%.

Turning to `Cc1ccncc1-c1ccc2[nH]nc(-c3cc4c(-c5cc(F)cc(CNS(C)(=O)=O)c5)cncc4[nH]3)c2n1` [Compound 481, N-(3-Fluoro-5-(2-(5-(4-methylpyridin-3-yl)-1H-pyrazolo[4,3-b]pyridin-3-yl)-1H-pyrrolo[2,3-c]pyridin-4-yl)benzyl)methanesulfonamide], in assay [1], the EC50 amounted to 10 nM and the Emax stood at 87%. Also, the EC50 in the assay on IL-6 stood at 0.115 µM.

As for `Cc1ncc(-c2ccc3[nH]nc(-c4cc5c(-c6ccncc6)cncc5[nH]4)c3n2)n1C` [Compound 573, 5-(1,2-Dimethyl-1H-imidazol-5-yl)-3-(4-(pyridin-4-yl)-1H-pyrrolo[2,3-c]pyridin-2-yl)-1H-pyrazolo[4,3-b]pyridine], in the assay with IL-6, the EC50 was over 10 µM and the inhibition at 10 µM turned out to be 0%.

`c1cc(-c2cncc3[nH]c(-c4n[nH]c5ccc(-c6cncc(OCCN7CCCC7)c6)nc45)cc23)co1` [Compound 690, 3-(4-(Furan-3-yl)-1H-pyrrolo[2,3-c]pyridin-2-yl)-5-(5-(2-(pyrrolidin-1-yl)ethoxy)pyridin-3-yl)-1H-pyrazolo[4,3-b]pyridine]: in the assay on IL-6, the EC50 was over 10 µM and the inhibition at 10 µM is 9.7%.

A word on the inhibition: it is the share of the control response that was lost under treatment.
